# Measured values: article PMC5740381 (Antimicrobial Agents and Chemotherapy, 2017)
# Like-named read-outs stand apart in the source and are kept apart here.
# Tests used:
# [1] = target: T1, GT1a H77 / 1a Wild type (Hepatitis C virus (isolate H77), UniProt P27958); test: cell-based; set-up: species or system Huh-7; details: SD, n = 3
# T1 construct: in subgenomic replicon
# Experimental: (§1) Mutagenesis was performed using a Change-IT multiple-mutation site-directed mutagenesis kit (USB, Cleveland, OH) or by cloning a synthesized DNA fragment encoding the amino acid substitution(s). The genotype 1a and 1b replicon shuttle vectors used for the introduction of the substitutions of interest in the NS3, NS5A, or NS5B gene for transient-transfection assays have been described previously ([28], [33]). The replicon shuttle vectors used for the introduction of substitutions in NS3 genes from other genotypes were similar to the stable replicon cell line constructs described above, except for the absence of the neo gene. After mutagenesis, the plasmids were linearized and RNA was transcribed and then used to transfect Huh-7 cells. Inhibition of HCV replication by the HCV inhibitors was measured by luciferase assay, as described above. Replication efficiency was calculated as a percentage of wild-type replication, as described previously ([28]).
# [2] = target: T2, GT1b Con1 / 1b Wild type (Hepatitis C virus (isolate Con1), UniProt Q9WMX2); test: cell-based; set-up: species or system Huh-7; details: SD, n = 3
# T2 construct: in subgenomic replicon
# Experimental: as §1
# [3] = target: T3, 1a F43L (Hepatitis C virus (isolate H77), UniProt P27958, F1069L); test: Luciferase assay of HCV replication in transient-transfection replicons with wild-type or substituted NS3 (at least 3 transfections).; type: cell-based, Huh-7; details: SD, n = 3
# T3 construct: in transient replicon
# Experimental: as §1
# [4] = target: T4, 1a D168A (Hepatitis C virus (isolate H77), UniProt P27958, D1194A); test: as above; type: cell-based, Huh-7; details: SD, n = 3
# T4 construct: in transient replicon
# Experimental: as §1
# [5] = target: T5, 1b A156V (Hepatitis C virus (isolate Con1), UniProt Q9WMX2, A1182V); test: as above; type: cell-based, Huh-7; details: SD, n = 3
# T5 construct: in transient replicon
# Experimental: as §1
# [6] = target: T6, 1a V36M (Hepatitis C virus (isolate H77), UniProt P27958, V1062M); test: as above; type: cell-based, Huh-7; details: SD, n = 3
# T6 construct: in transient replicon
# Experimental: as §1
# [7] = target: T7, 1b V170A (Hepatitis C virus (isolate Con1), UniProt Q9WMX2, V1196A); test: as above; type: cell-based, Huh-7; details: SD, n = 3
# T7 construct: in transient replicon
# Experimental: as §1
# [8] = target: T8, 1a D168E (Hepatitis C virus (isolate H77), UniProt P27958, D1194E); test: as above; type: cell-based, Huh-7; details: SD, n = 3
# T8 construct: in transient replicon
# Experimental: as §1
# [9] = target: T9, 1a R155K (Hepatitis C virus (isolate H77), UniProt P27958, R1181K); test: as above; type: cell-based, Huh-7; details: SD, n = 3
# T9 construct: in transient replicon
# Experimental: as §1
# [10] = target: T10, 5a D168H (Hepatitis C virus SA13, UniProt O91936, D1195H); test: as above; type: cell-based, Huh-7; details: SD, n = 3
# T10 construct: in genotype 2a JFH-1 chimeric transient replicon
# Experimental: as §1
# [11] = target: T11, 1b D168E (Hepatitis C virus (isolate Con1), UniProt Q9WMX2, D1194E); test: as above; type: cell-based, Huh-7; details: SD, n = 3
# T11 construct: in transient replicon
# Experimental: as §1
# [12] = target: T12, 1b T54A (Hepatitis C virus (isolate Con1), UniProt Q9WMX2, T1080A); test: as above; type: cell-based, Huh-7; details: SD, n = 3
# T12 construct: in transient replicon
# Experimental: as §1
# [13] = target: T13, 1a T54S (Hepatitis C virus (isolate H77), UniProt P27958, T1080S); test: as above; type: cell-based, Huh-7; details: SD, n = 3
# T13 construct: in transient replicon
# Experimental: as §1
# [14] = target: T14, 1a D168V (Hepatitis C virus (isolate H77), UniProt P27958, D1194V); test: as above; type: cell-based, Huh-7; details: SD, n = 3
# T14 construct: in transient replicon
# Experimental: as §1
# [15] = target: T15, 2a D168E (Hepatitis C virus JFH-1, UniProt Q99IB8, D1198E); test: as above; type: cell-based, Huh-7; details: SD, n = 3
# T15 construct: in transient replicon
# Experimental: as §1
# [16] = target: T16, 1a Q80K (Hepatitis C virus (isolate H77), UniProt P27958, Q1106K); test: as above; type: cell-based, Huh-7; details: SD, n = 3
# T16 construct: in transient replicon
# Experimental: as §1
# [17] = target: T17, 1b A156T (Hepatitis C virus (isolate Con1), UniProt Q9WMX2, A1182T); test: as above; type: cell-based, Huh-7; details: SD, n = 3
# T17 construct: in transient replicon
# Experimental: as §1
# [18] = target: T18, 1a A156T (Hepatitis C virus (isolate H77), UniProt P27958, A1182T); test: as above; type: cell-based, Huh-7; details: SD, n = 3
# T18 construct: in transient replicon
# Experimental: as §1
# [19] = target: T19, 5a D168E (Hepatitis C virus SA13, UniProt O91936, D1195E); test: as above; type: cell-based, Huh-7; details: SD, n = 3
# T19 construct: in genotype 2a JFH-1 chimeric transient replicon
# Experimental: as §1
# [20] = target: T20, 1b D168A (Hepatitis C virus (isolate Con1), UniProt Q9WMX2, D1194A); test: as above; type: cell-based, Huh-7; details: SD, n = 3
# T20 construct: in transient replicon
# Experimental: as §1
# [21] = target: T21, 2a D168V (Hepatitis C virus JFH-1, UniProt Q99IB8, D1198V); test: as above; type: cell-based, Huh-7; details: SD, n = 3
# T21 construct: in transient replicon
# Experimental: as §1
# [22] = target: T22, 2a D168A (Hepatitis C virus JFH-1, UniProt Q99IB8, D1198A); test: as above; type: cell-based, Huh-7; details: SD, n = 3
# T22 construct: in transient replicon
# Experimental: as §1
# [23] = target: T23, 1b V55A (Hepatitis C virus (isolate Con1), UniProt Q9WMX2, V1081A); test: as above; type: cell-based, Huh-7; details: SD, n = 3
# T23 construct: in transient replicon
# Experimental: as §1
# [24] = target: T24, 1b R155K (Hepatitis C virus (isolate Con1), UniProt Q9WMX2, R1181K); test: as above; type: cell-based, Huh-7; details: SD, n = 3
# T24 construct: in transient replicon
# Experimental: as §1
# [25] = target: T25, 1a V55I (Hepatitis C virus (isolate H77), UniProt P27958, V1081I); test: as above; type: cell-based, Huh-7; details: SD, n = 3
# T25 construct: in transient replicon
# Experimental: as §1
# [26] = target: T26, 2a A156T (Hepatitis C virus JFH-1, UniProt Q99IB8, A1186T); test: as above; type: cell-based, Huh-7; details: SD, n = 3
# T26 construct: in transient replicon
# Experimental: as §1
# [27] = target: T27, 1b D168V (Hepatitis C virus (isolate Con1), UniProt Q9WMX2, D1194V); test: as above; type: cell-based, Huh-7; details: SD, n = 3
# T27 construct: in transient replicon
# Experimental: as §1
# [28] = target: T28, 1a Y56H (Hepatitis C virus (isolate H77), UniProt P27958, Y1082H); test: as above; type: cell-based, Huh-7; details: SD, n = 3
# T28 construct: in transient replicon
# Experimental: as §1
# [29] = target: T29, 2a A156V (Hepatitis C virus JFH-1, UniProt Q99IB8, A1186V); test: as above; type: cell-based, Huh-7; details: SD, n = 3
# T29 construct: in transient replicon
# Experimental: as §1
# [30] = target: T1, GT1a H77 / 1a Wild type; test: cell-based; set-up: species or system Huh-7; details: SD, n = 3; read-out: HCV stable replicons in 0% human plasma, Mean EC50 ± SD
# Text: (§2) Five of these nine cell lines have been described previously, including those transfected with genotypes 1a H77, 1b Con1, 3a, 4a, and 6a ([28]). […] The genotype 2b and 6e NS3 sequences were each synthetically constructed based on a consensus sequence derived from the alignment of 15 genotype 2b and 4 genotype 6e sequences, respectively. All replicon constructs were bicistronic subgenomic replicons similar to those described by Bartenschlager and coworkers, and the replicon cell lines were generated by introducing these constructs into cells of an Huh-7 human hepatoma-derived cell line ([50]). The inhibitory effect of the PIs on HCV replication in replicon cells was determined in Dulbecco's modified Eagle medium containing 5% fetal bovine serum with or without 40% human plasma (Bioreclamation, Westbury, NY). The EC50s were determined using nonlinear regression curve fitting as described previously ([33]).
# [31] = target: T2, GT1b Con1 / 1b Wild type; test: cell-based; set-up: species or system Huh-7; details: SD, n = 3; read-out: HCV stable replicons in 0% human plasma, Mean EC50 ± SD
# Text: as §2
# [32] = tested on: genotype 1b Con1 replicon cells; details: genotype 1b replicon cells; cited from earlier work
# [33] = tested on: HCV genotype 1a replicon cells; test: Drug-resistant colony selection in replicon cells; type: cell-based, Hepatitis C virus; details: 10× EC50, about 3 weeks
# Text: (§3) . After approximately 3 weeks of treatment, the surviving replicon colonies in one plate for each selection condition were stained with crystal violet and counted, whereas approximately 20 to 30 colonies in a replicate plate or most of the colonies, if less than 20 colonies survived the selection, were picked and further expanded for genotyping. The expanded colonies were lysed in CellsDirect lysis buffer (Invitrogen, MA), and the NS3-coding region from each colony was amplified by reverse transcription-PCR and sequenced. For genotype 1a, 1b, 2a, and 5a colonies, the full-length NS3 sequence was determined, whereas for colonies of the chimeric replicon containing the N-terminal region of NS3 from genotype 2b, 3a, 4a, or 6a, the sequence encoding the NS3 N-terminal region was determined. We defined a substitution in a replicon to be an amino acid difference in a sequence from a posttreatment sample relative to the sequence of the corresponding untreated sample. For resistance selection studies, NS3 substitutions detected at the following amino acid positions associated with resistance to the HCV PI class in >2 colonies in each replicon selection are reported: 36, 43, 54, 55, 56, 80, 122, 155, 156, and 168. In addition, substitutions detected at other amino acid positions in the NS3 protease domain in >2 colonies in each replicon selection are also reported.
# (§4) […]. The drug-resistant colonies were fixed and stained with crystal violet, and the number of colonies was determined.
# [34] = tested on: HCV genotype 1b replicon cells; test: Drug-resistant colony selection in replicon cells; type: cell-based, Hepatitis C virus; details: 10× EC50, about 3 weeks
# Text: as §3, §4
smiles,measurement,setting,value
"Cc1cnc(C(=O)N[C@H]2CCCCC/C=C\[C@@H]3C[C@@]3(C(=O)NS(=O)(=O)C3CC3)NC(=O)[C@@H]3C[C@@H](Oc4nc5ccccc5c5ccccc45)CN3C2=O)cn1 [Paritaprevir, paritaprevir (ABT-450)]",EC50,[1],1.4 ± 0.4 nM
same,EC50,[2],0.11 ± 0.05 nM
same,EC50,[3],27 ± 12 nM
same,EC50,[4],70 ± 9 nM
same,EC50,[5],2.3 ± 0.53 nM
same,EC50,[6],3 ± 0.3 nM
same,EC50,[7],0.09 ± 0.03 nM
same,EC50,[8],20 ± 0.7 nM
same,EC50,[9],51 ± 8 nM
same,EC50,[10],184 ± 65 nM
same,EC50,[11],0.48 ± 0.05 nM
same,EC50,[12],0.09 ± 0.01 nM
same,EC50,[13],0.54 ± 0.01 nM
same,EC50,[14],135 ± 21 nM
same,EC50,[15],89 ± 15 nM
same,EC50,[16],3.9 ± 0.3 nM
same,EC50,[17],0.81 ± 0.13 nM
same,EC50,[18],24 ± 3 nM
same,EC50,[19],7.7 ± 1.7 nM
same,EC50,[20],3 ± 0.2 nM
same,EC50,[21],228 ± 32 nM
same,EC50,[22],306 ± 34 nM
same,EC50,[23],0.07 ± 0.001 nM
same,EC50,[24],4.4 ± 0.1 nM
same,EC50,[25],1.4 ± 0.14 nM
same,EC50,[26],29 ± 2.8 nM
same,EC50,[27],17 ± 2 nM
same,EC50,[28],4.1 ± 1.1 nM
same,EC50,[29],37 ± 1.2 nM
same,EC50,[30],1 ± 0.33 nM
same,EC50,[31],0.21 ± 0.07 nM
"COC(=O)N[C@H](C(=O)N1CCC[C@H]1c1nc2cc([C@H]3CC[C@H](c4cc5nc([C@@H]6CCCN6C(=O)[C@@H](NC(=O)OC)[C@@H](C)OC)[nH]c5cc4F)N3c3cc(F)c(N4CCC(c5ccc(F)cc5)CC4)c(F)c3)c(F)cc2[nH]1)[C@@H](C)OC [Pibrentasvir, reference compound]",EC50,[32],0.0043 nM
same,Colony survival,[33],0.0065%
same,Colony survival,[34],0%
same,Colony survival,[34]; listed as pibrentasvir,no genotype 1b replicon cells survived
